# Measured values published in patent publication US20100226966A1, “Method for transdermal controlled release drug delivery” (priority 2009, published 2010).
# Experiments:
# [1] = Clinical dose-finding and bioavailability study, transdermal coated microprojection vs subcutaneous Forteo, PTH plasma levels and safety; assay type: in vivo, human (healthy, young females)
# Description: (§1) In this example, transdermal delivery of a PTH-based agent using a coated microprojection member was compared to conventional, subcutaneous delivery of teriparatide PTH (Forteo™). A dose-finding study was conducted with […], young females that received two treatments, separated by at least five days, according to randomly assigned sequence of 20 μg subcutaneous delivery of Forteo™ and 30 μg transdermal delivery of a PTH-based agent by coated microprojection. Bioavailability of transdermally delivered PTH was determined in 20 healthy, young females by administering two treatments, separated by at least five day, according to randomly assigned sequence of 40 μg subcutaneous delivery of Forteo™ and 30 μg transdermal delivery of a PTH-based agent by coated microprojection.
# In the dose-finding study, two participants dropped out, eleven subjects participated and eight generated usable data. It was determined that three subjects had measurable PTH plasma levels following subcutaneous injection and eight subjects had measurable PTH plasma levels following transdermal delivery.
# Water solubility of PTH = assay type: physicochemical; details: at pH 5
# From the text: Referring now to FIG. 10, there is shown a superposition of the mole ratios for acetic acid and the neutral form of hPTH(1-34). […] At pH 5, negligible amounts of PTH are present as PTH zero net charge (PTH 0). The PTH is also highly soluble in water at concentrations in excess of 20%. During drying and subsequent storage, the free acetic acid will evaporate inherently resulting in formation of the water insoluble PTH 0. Subsequent reconstitution in water will not allow total solubilization of PTH. Accordingly, the use of a low volatility counterion provides a solid soluble formulation of PTH as long as the pH is maintained at least 2.5 pH units, preferably 3 pH units, below the pI of PTH. Preferably, this can be achieved by providing at least about two low volatility counterions to each molecule of PTH.
# urinary cAMP = assay: Urinary cAMP excretion after transdermal vs subcutaneous PTH delivery; assay type: in vivo, human (healthy, young females); details: FIG. 15
# Description: as §1
# FIG. 12 further reflects a preferred pulsatile concentration profile of the PTH agent, i.e., rapid on-set and rapid off-set after reaching Cmax.
# [2] = Pharmacokinetics of hPTH (1-34) after IV, SC and coated microprojection array administration in hairless guinea pig; assay type: in vivo; details: HGP; for dose absorbed/delivered: calculated against IV AUC
structure (smiles),measurement,setting,value
CC[C@H](C)[C@H](NC(=O)[C@H](CCC(=O)O)NC(=O)[C@H](CO)NC(=O)[C@@H](NC(=O)[C@@H](N)CO)C(C)C)C(=O)N[C@@H](CCC(N)=O)C(=O)N[C@@H](CC(C)C)C(=O)N[C@@H](CCSC)C(=O)N[C@@H](Cc1cnc[nH]1)C(=O)N[C@@H](CC(N)=O)C(=O)N[C@@H](CC(C)C)C(=O)NCC(=O)N[C@@H](CCCCN)C(=O)N[C@@H](Cc1cnc[nH]1)C(=O)N[C@@H](CC(C)C)C(=O)N[C@@H](CC(N)=O)C(=O)N[C@@H](CO)C(=O)N[C@@H](CCSC)C(=O)N[C@@H](CCC(=O)O)C(=O)N[C@@H](CCCN=C(N)N)C(=O)N[C@H](C(=O)N[C@@H](CCC(=O)O)C(=O)N[C@@H](Cc1c[nH]c2ccccc12)C(=O)N[C@@H](CC(C)C)C(=O)N[C@@H](CCCN=C(N)N)C(=O)N[C@@H](CCCCN)C(=O)N[C@@H](CCCCN)C(=O)N[C@@H](CC(C)C)C(=O)N[C@@H](CCC(N)=O)C(=O)N[C@@H](CC(=O)O)C(=O)N[C@H](C(=O)N[C@@H](Cc1cnc[nH]1)C(=O)N[C@@H](CC(N)=O)C(=O)N[C@@H](Cc1ccccc1)C(=O)O)C(C)C)C(C)C [hPTH (1-34)],subjects with measurable PTH plasma levels,"[1]; bioavailability study, subcutaneous delivery 40 μg, 20 subjects completed",15 subjects
same,subjects with measurable PTH plasma levels,"[1]; bioavailability study, transdermal delivery 30 μg, 20 subjects completed",20 subjects
same,subjects with measurable PTH plasma levels,"[1]; dose-finding study, subcutaneous injection 20 μg, eight subjects with usable data",three
same,subjects with measurable PTH plasma levels,"[1]; dose-finding study, transdermal delivery 30 μg, eight subjects with usable data",eight
same,solubility in water (concentration),Water solubility of PTH,> 20%
same,biological activity as evidenced by urinary cAMP excretion,urinary cAMP,comparable to that following subcutaneous delivery
same,Fraction dose absorbed/delivered (%),"[2]; IV, 22.5 μg",100%
same,dose absorbed/delivered,"[2]; SC, 19.5 μg",8.2 ± 2.9 µg
same,Cmax,"[2]; hairless, guinea pig, plasma, 22.5 ug, IV",11.2 ng/mL
same,dose absorbed/delivered,"[2]; microprojection array, 40.0 μg",6.6 ± 1.8 µg
